Data published in US5919761A, “Peptides for heparin and low molecular weight heparin anticoagulation reversal” (The Board of Regents of the University of Michigan, priority 1995, dated 1999).
Peptide text beside a SMILES is read from it.

How the values were obtained:
[1] = Platelet count, leukocyte count and bleeding time after LMWH reversal at different rates, canine study; assay type: in vivo, dogs; details: dogs, Logiparin; administered over 10 sec
Experimental: (§1) The anticoagulation-reversing agents were administered rapidly over 10 seconds to maximize hemodynamic effects or more slowly over a 3 minute interval. Changes in LMWH anticoagulation occurring from metabolism alone were determined in a separate group of dogs not given any reversal agent.

[2] = Platelet and white blood cell count after LMWH reversal, canine study; assay type: in vivo; details: dogs, Logiparin
Experimental: In addition to the measurements reported on Table 6, studies were conducted to measure the activated partial thromboplastin time (aPTT), platelet count, and white blood cell count. […] However, the [+18B] variant produced greater aPTT reversal than protamine at the 3, 10 and 30 minute measurements (64%, 95%, and 93%, respectively, as compared to 50%, 83%, and 78%, respectively, for protamine).

[3] = Hemodynamic studies and total toxicity score after LMWH reversal at different rates, canine study; details: dogs, Logiparin; administered over 10 sec
Experimental: as §1
(§2) Hemodynamic studies were conducted by measuring mean arterial pressure (MAP) in mm Mercury, maximum percent changes in cardiac output (CO) and systemic oxygen consumption (VO2), and heart rate (HR) in beats per minute. Measurements and calculations were made at baseline, before LMWH administration, 3 minutes before reversal, every 30 seconds for 5 minutes after reversal, and at 10, 20, and 30 minutes after reversal.
TTS were developed that reflected maximum declines in each of four parameters (MAP, CO, VO2 and HR) over the first 5 minutes after reversal in the same manner as described hereinabove.

LMWH (LHN-1, Logiparin) [4] = experiment: Percent reversal of low molecular weight heparin anticoagulation, in vivo canine study, coagulation tests; set-up: species or system dogs; details: for aPTT reversal: Logiparin
Experimental: Anticoagulation reversal was assessed by a number of standard coagulation tests performed upon samples of venous blood: activated clotting time (ACT), heparin concentration by assay for FXa inhibitory activity (FXa), thrombin clotting time (TCT), and heparin concentration by assay for FIIa inhibitory activity (FIIa). Measurements were made 3 minutes prior to heparin reversal (baseline) and 3 minutes, 10 minutes, and 30 minutes post-administration of the heparin reversal agent. […] The coagulation data were corrected for naturally occurring metabolism.

[5] = Hemodynamic studies and total toxicity score after LMWH reversal, canine study; details: dogs
Experimental: as §2
Total toxicity scores (TTS) were developed that reflected maximum declines in each of four parameters (MAP, CO, VO2 and HR) over the first 5 minutes after reversal. The maximum changes occurring in an individual dog over the first 5 minutes were divided by the standard deviation derived from the entire group of tested animals and the four scores were added, resulting in a TTS for each individual dog. The TTS values for each dog were then summed to obtain an average TTS and SD for each peptide studied. The more negative the value of TTS, the more toxic the compound.

LMWH (LHN-1, Logiparin) [6] = experiment: Percent reversal of LMWH anticoagulation, agents administered at different rates, canine study; assay type: in vivo, dogs
Experimental: Anticoagulation reversal was assessed by a number of standard coagulation tests performed upon samples of venous blood in the manner described hereinabove. Measurements were made 3 minutes prior to heparin reversal (baseline) and 3 minutes, 10 minutes, and 30 minutes post-administration of the heparin reversal agent.

[7] = Logiparin, maximum percent change
[8] = administered over 10 sec, 3 min
[9] = administered over 10 sec, 10 min
[10] = administered over 10 sec, 30 min

SMILES: CC(=O)N1CCC[C@H]1C(=O)N[C@@H](C)C(=O)N[C@@H](CCCCN)C(=O)N[C@@H](CCCCN)C(=O)N[C@@H](C)C(=O)N[C@@H](C)C(=O)N[C@@H](CCCCN)C(=O)N[C@@H](CCCCN)C(=O)N[C@@H](C)C(=O)N[C@@H](CCCCN)C(=O)N[C@@H](CCCCN)C(=O)N[C@@H](C)C(=O)N[C@@H](C)C(=O)N[C@@H](CCCCN)C(=O)N[C@@H](CCCCN)C(=O)N[C@@H](C)C(=O)N[C@@H](CCCCN)C(=O)N[C@@H](CCCCN)C(=O)N[C@@H](C)C(=O)N[C@@H](C)C(=O)N[C@@H](CCCCN)C(=O)N[C@@H](CCCCN)C(=O)N[C@@H](C)C(=O)N[C@@H](CCCCN)C(=O)N[C@@H](CCCCN)C(=O)N[C@@H](C)C(=O)N[C@@H](C)C(=O)N[C@@H](CCCCN)C(=O)N[C@@H](CCCCN)C(=O)N[C@@H](C)C(=O)N[C@@H](CCCCN)C(=O)N[C@@H](CCCCN)C(N)=O [[+18B], acetyl-PA(K2 A2 K2 A)4 K2 -amide] (Ac-PAKKAAKKAKKAAKKAKKAAKKAKKAAKKAKK-NH2)
- Maximal decline in leukocyte count [1]: -21%
- Maximal thrombocytopenia [1]: -56%
- decline in white blood cell count [2]: greatest
- mean decline in platelet count [2]: -56%
- Total Toxicity Score [3]: -3.1 ± 1.5
- ΔCO [3]: -18%
- ΔHr [3]: -9 beats per minute
- ΔMAP [3]: -10 mm Mercury
- ΔVO2 [3]: -12%
- aPTT reversal (LMWH (LHN-1, Logiparin) [4]; dogs, 3 minute measurement): 64%
- aPTT reversal (LMWH (LHN-1, Logiparin) [4]; dogs, 10 minute measurement): 95%
- aPTT reversal (LMWH (LHN-1, Logiparin) [4]; dogs, 30 minute measurement): 93%
- Percent reversal of LMWH anticoagulation, ACT (LMWH (LHN-1, Logiparin) [4]; dogs, Logiparin 150 IU/kg, agent 1.5 mg/kg IV after 30 min, 3 min post-administration, corrected for metabolism): 87%
- Percent reversal of LMWH anticoagulation, FNa (LMWH (LHN-1, Logiparin) [4]; same study, 3 min): 96%
- Percent reversal of LMWH anticoagulation, FXa (LMWH (LHN-1, Logiparin) [4]; same study, 3 min): 64%
- Percent reversal of LMWH anticoagulation, TCT (LMWH (LHN-1, Logiparin) [4]; same study, 3 min): 99%
- Percent reversal of LMWH anticoagulation, ACT (LMWH (LHN-1, Logiparin) [4]; same study, 10 min): 93%
- Percent reversal of LMWH anticoagulation, FNa (LMWH (LHN-1, Logiparin) [4]; same study, 10 min): 72%
- Percent reversal of LMWH anticoagulation, FXa (LMWH (LHN-1, Logiparin) [4]; same study, 10 min): 34%
- Percent reversal of LMWH anticoagulation, TCT (LMWH (LHN-1, Logiparin) [4]; same study, 10 min): 95%
- Percent reversal of LMWH anticoagulation, ACT (LMWH (LHN-1, Logiparin) [4]; same study, 30 min): 102%
- Percent reversal of LMWH anticoagulation, FNa (LMWH (LHN-1, Logiparin) [4]; same study, 30 min): 74%
- Percent reversal of LMWH anticoagulation, FXa (LMWH (LHN-1, Logiparin) [4]; same study, 30 min): 52%
- Percent reversal of LMWH anticoagulation, TCT (LMWH (LHN-1, Logiparin) [4]; same study, 30 min): 96%
- Total Toxicity Score ([5]; LMWH, 50% less dose (1:2 peptide to LMWH)): about -1.62
- maximum mean increase in pulmonary artery diastolic (PAD) pressure ([5]; Logiparin): no increase
- maximum mean increase in pulmonary artery systolic (PAS) pressure ([5]; Logiparin): no increase
- ΔHR ([5]; Logiparin): -9 beats per minute
- ΔMAP ([5]; Logiparin): -10 mm Mercury
- Total Toxicity Score ([5]; Logiparin, first 5 minutes after reversal, 1:1 peptide to LMWH): -4.1 ± 1.6
- ΔCO [5, 7]: -18%
- ΔVO2 [5, 7]: -12%
- Percent reversal of LMWH anticoagulation, FNa (LMWH (LHN-1, Logiparin) [6]; [8]): 95%
- Percent reversal of LMWH anticoagulation, FXa (LMWH (LHN-1, Logiparin) [6]; [8]): 64%
- Percent reversal of LMWH anticoagulation, TCT (LMWH (LHN-1, Logiparin) [6]; [8]): 99%
- Percent reversal of LMWH anticoagulation, ACT (LMWH (LHN-1, Logiparin) [6]; [9]): 87%
- Percent reversal of LMWH anticoagulation, FNa (LMWH (LHN-1, Logiparin) [6]; [9]): 72%
- Percent reversal of LMWH anticoagulation, FXa (LMWH (LHN-1, Logiparin) [6]; [9]): 34%
- Percent reversal of LMWH anticoagulation, TCT (LMWH (LHN-1, Logiparin) [6]; [9]): 95%
- Percent reversal of LMWH anticoagulation, ACT (LMWH (LHN-1, Logiparin) [6]; [10]): 98%
- Percent reversal of LMWH anticoagulation, FNa (LMWH (LHN-1, Logiparin) [6]; [10]): 74%
- Percent reversal of LMWH anticoagulation, FXa (LMWH (LHN-1, Logiparin) [6]; [10]): 52%
- Percent reversal of LMWH anticoagulation, TCT (LMWH (LHN-1, Logiparin) [6]; [10]): 100%
- Percent reversal of LMWH anticoagulation, ACT (LMWH (LHN-1, Logiparin) [6]; dogs, Logiparin, agent administered over 10 sec, 3 min post-administration): 87%
